Source: PMC7616174, “Development of Novel 4-Arylpyridin-2-one and 6-Arylpyrimidin-4-one Positive Allosteric Modulators of the M1 Muscarinic Acetylcholine Receptor” (ChemMedChem, 2020)
Read-outs that look alike come from different tables or passages of the source.

What was measured:
hM1 mAChR = biological target: T1, hM1 mAChR (Homo sapiens, UniProt P11229); experiment: Whole-cell [3H]NMS equilibrium competition radioligand binding; details: [3H]NMS binding; for α (binding cooperativity with ACh): antilog
T1 construct: expressed in transfected cells
T1 sequence (P11229 1-460): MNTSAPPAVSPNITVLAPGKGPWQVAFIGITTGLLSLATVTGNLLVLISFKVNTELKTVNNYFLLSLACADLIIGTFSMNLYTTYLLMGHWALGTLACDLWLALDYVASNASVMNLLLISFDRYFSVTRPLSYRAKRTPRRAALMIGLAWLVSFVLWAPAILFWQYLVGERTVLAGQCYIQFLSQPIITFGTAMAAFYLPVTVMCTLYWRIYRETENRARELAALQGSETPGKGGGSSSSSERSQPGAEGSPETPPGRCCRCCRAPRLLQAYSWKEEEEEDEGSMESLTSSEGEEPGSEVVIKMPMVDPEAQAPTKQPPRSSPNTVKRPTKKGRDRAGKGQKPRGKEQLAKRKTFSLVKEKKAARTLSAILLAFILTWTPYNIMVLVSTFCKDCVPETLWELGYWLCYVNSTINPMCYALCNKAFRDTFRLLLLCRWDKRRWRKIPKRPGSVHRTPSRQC
Procedure: To determine the affinity (pKB) of the allosteric modulators for the allosteric site, and their binding cooperativity with ACh (log αACh) at the M1 mAChR, whole cell equilibrium competition binding studies were performed, using [^3H]NMS to label the orthosteric site.
FlpIn Chinese hamster ovary (CHO) cells stably expressing the hM1 mAChR were grown in Dulbecco’s modified Eagle’s medium (DMEM) (Invitrogen, Carlsbad, CA) supplemented with 5% foetal bovine serum (FBS) (Thermo-Trace, Melbourne, Australia) and 300 μg/mL G418 (Invitrogen, Carlsbad, CA). The cells were plated at 50,000 cells per well of 96-well white clear bottom plates (Greiner Bio-one, Kremsmünster, Austria), and were grown overnight. The following day, cells were washed twice with Phosphate Buffered Saline (PBS), and incubated with increasing concentrations of ACh (Sigma) in the absence or presence of increasing concentrations of each modulator and 0.2 nM [^3H]NMS (PerkinElmer Life Sciences) in binding buffer (20 mM HEPES, 100 mM NaCl, 10 mM MgCl2, pH 7.4) for 5 h at room temperature. Nonspecific binding was determined using atropine at the final concentration of 10 μM. The assays were terminated by rapid removal of the unbound radioligand followed by two washes with 100 μL/well ice-cold 0.9% NaCl buffer. Radioactivity was determined by addition of 100 μL/well Ultima gold (PerkinElmer Life Sciences) and counting in a MicroBeta plate reader (PerkinElmer Life Sciences).
Binding interaction studies with allosteric ligands were fitted to the following allosteric ternary complex model [Eq. (2)][15] Y=Bmax|A|/[Λ]+[KAKB/α^′[B]+KB][1+[I]/K1+[B]/KB+α[I][B]/KIKB] where Bmax is the total number of receptors, [A], [B] and [I] denote the concentrations of radioligand, allosteric modulator, and orthosteric ligand, respectively; KA, KB and KI are their respective equilibrium dissociation constants. α’ and α are the affinity cooperativity factors between the allosteric ligand and radioligand or the allosteric modulator and ACh, respectively. Values of α or α’ > 1 denote positive cooperativity, values < 1 but > 0 denote negative cooperativity, and a value of 1 indicates neutral coopera-tivity.

M1 mAChR = biological target: T2, M1 mAChR (Homo sapiens, UniProt P11229); design: method as in PMID 24051397; details: ref 10a; cited from earlier work
T2 construct: expressed in transfected cells; host or cells: parental FlpIn CHO cells (transient, PEI)
T2 sequence (P11229 1-460): T1 sequence (P11229 1-460)

in vivo = details: male, C57Bl/6 J, mouse, 10 mg/kg
Procedure: The study was performed using 10–12 weeks old male C57Bl/6 J naïve mice in accordance with the Australian Code of Practice for the Care and Use of Animals for Scientific Purposes, with procedures approved by the Animal Ethics Committee of the Monash Institute of Pharmaceutical Sciences.

[1] = allosteric ternary complex model, mean ± SEM, read-out: pKB (negative logarithm of the allosteric modulator equilibrium dissociation constant) (converted)

Row | Kb (hM1 mAChR; KB, antilog of pKB, in parentheses) [µM] | α (binding cooperativity with ACh) (hM1 mAChR; in parentheses) | log αACh (logarithm of binding cooperativity between ACh and modulator) (hM1 mAChR; mean ± SEM) | Kb (hM1 mAChR; pKB (negative logarithm of the allosteric modulator equilibrium dissociation constant), allosteric ternary complex model, mean ± SEM) [µM] | Kp (in vivo; brain/plasma, ip) | Kp uu (in vivo; brain/plasma, ip) | Kb (hM1 mAChR; [1]) [µM] | concentration at 90 min (in vivo; brain, intraperitoneal) [nM] | Structure (SMILES) | increase in binding cooperativity with ACh (αACh) compared to MIPS1650 (1) (M1 mAChR) | increase in intrinsic efficacy (τB) compared to MIPS1650 (1) (M1 mAChR) [fold]
1 | 3 | 240 | 2.38±0.13 | 3.16 | < 0.1 | < 0.1 | – | – | Cn1cc(-c2ccc(COc3ccccc3-c3cc(=O)n(C4CCCCC4O)cn3)cc2)cn1 (stereo not drawn) [Compound 2, 3-(2-Hydroxycyclohexyl)-6-(2-((4-(1-methyl-1H-pyrazol-4-yl)benzyl)oxy)phenyl)pyrimidin-4(3H)-one] | fourfold increase | 11
2 | – | 240 | 2.38±0.39 | – | – | – | 38 | 100 | Cn1cc(-c2ccc(COc3ncccc3-c3ccn(C4CCCCC4O)c(=O)c3)cc2)cn1 (stereo not drawn) [Compound 7f, 1’-(2-Hydroxycyclohexyl)-2-((4-(1-methyl-1H-pyrazol-4-yl)benzyl)oxy)-[3,4’-bipyridin]-2’(1’H)-one] | – | –
3 | – | 72 | 1.86±0.28 | – | – | – | 16.6 | – | CN(C)C(=O)Cn1ccc(-c2ccccc2OCc2ccc(-c3cnn(C)c3)cc2)cc1=O [Compound 13c, N,N-Dimethyl-2-(4-(2-((4-(1-methyl-1H-pyrazol-4-yl)benzyl)oxy)phenyl)-2-oxopyridin-1(2H)-yl)acetamide] | – | –
